# Patent US9079854B2 (priority 2007, dated 2015)
# Read-outs that look alike come from different tables or passages of the source.
# Columns and labels:
# [1] = tested on: tactile allodynia in a spinal nerve ligation neuropathic pain model; assay: Lumbar 5/6 spinal nerve ligation neuropathic pain model, mechanical paw withdrawal threshold (von Frey); type: in vivo, rat; conditions: pretreatment with 5 mg/kg i.p.; rats
# Description: Neuropathic pain was induced following the methods of Kim and Chung. Kim S H, Chung J M. An experimental model for peripheral neuropathy produced by segmental spinal nerve ligation in the rat. Pain 1992; 50:355-63. Rats were anesthetized and placed prone under a microsurgical apparatus. A midline incision was made on the back, and the right paraspinal muscles were separated from the spinous processes at the L4-S2 levels. The L6 transverse process was carefully removed, and the L4/5 spinal nerves were identified. The L5 nerve was tightly ligated with a 6-0 silk suture. The right L6 spinal nerve was then located just caudal and medial to the sacroiliac junction and tightly ligated with a silk suture.
# Two weeks later after spinal nerve ligation, Intrathecal catheters (PE-10 tubing) was inserted into the rats while they were anesthetized with isoflurane, as described by Yaksh and Rudy. Yaksh T L, Rudy T A. Chronic catheterization of the spinal subarachnoid space. Physiology & Behavior 1976; 17:1031-6. A midline incision was made on the back of the neck. The muscle was freed at the attachment to the skull exposing the cisternal membrane. The membrane was opened with a stab blade and an 8.5 cm polyethylene (PE-10) catheter was then inserted through the cisternal opening, and passed carefully and caudally into the intrathecal space at the L1-L3 spinal segments. The end of the catheter was tunneled through the subcutaneous space over the frontal bones, flushed with 10 μl saline, and then plugged with a short length of wire Animal testing was performed 5-7 days after intrathecal catheter placement.
# To assess mechanical allodynia, the mechanical paw withdrawal threshold was measured with a series of von Frey hairs (range 0.4-15 g). Rats were placed in elevated Perspex enclosures (28 cm×15 cm×18 cm) with wire mesh bases and given 15-20 min to acclimatize to the testing environment. Rats will be allowed to acclimatize for 30 min in a clear plastic cage with a wire mesh bottom. The calibrated von Frey filament fibers were applied to the hindpaw briefly for 6 seconds to determine the paw withdrawal threshold before and after drug injection (intraperitoneally or intrathecally). A series of von Frey filaments with exponentially incremental stiffness (0.4, 0.7, 1.2, 2.0, 3.6, 5.5, 8.5 and 15 g) were used to measure the 50% threshold for hindpaw withdrawal in awake, unrestrained rats. Chaplan S R, Bach F W, Pogrel J W, Chung J M, Yaksh T L. Quantitative assessment of tactile allodynia in the rat paw. Journal of Neuroscience Methods 1994; 53:55-63. Brisk paw withdrawal from the pressure of a filament gently bent against the plantar paw was defined as a positive response, and absence of withdrawal within 6 s as a negative response. Filaments were touched to the hindpaw in sequential ascending or descending order until the threshold of response is crossed (allowing about 10 s between each increment of the von Frey filaments). Each time the threshold is crossed, the direction of stimulus presentation was reversed and the procedure will be resumed. Four responses were collected after the first threshold detection, and the 50% withdrawal thresholds were interpolated. In cases where response thresholds fell outside the range of detection, 15.00 and 0.25 g were, respectively, assigned for continuous negative or positive responses to the limit of stimuli.
# All surgical procedures were performed under deep isoflurane anesthesia in 100% O2. The spinal nerve ligation (SNL) was performed as described previously. Kim, S. H., et al., An Experimental Model for Peripheral Neuropathy Produced by Segmental Spinal Nerve Ligation in the Rat, Pain, 1992, 50:355-63. Briefly, a midline incision above the lumbar spine exposed the left L6 transverse process. The process was then removed, the left L5 and L6 spinal nerves were isolated, and both nerves were tightly ligated with 6-0 silk. […]
# [2] = target: T1, human CB2 (hCB2) receptor (Homo sapiens, UniProt P34972); assay: CB2 binding assay, competitive binding of [3H]WIN 55212-2; conditions: for inhibition at 1 µM: read-out: % inhibition hCB2 receptor, at 1 μM, CHO membranes; for inhibition at 1 µM / inhibition at 10 µM: specific binding of [3H]-WIN55212-2; for inhibition at 10 µM: read-out: % inhibition hCB2 receptor, at 10 μM
# T1 construct: expressed in transfected cells; host or cells: CHO (Chinese hamster ovary) cells, membranes
# Method: Cell membrane homogenates (15 μg protein) are incubated for 120 min at 37° C. with 0.8 nM [^3H]WIN 55212-2 (the reference standard [Munro, 1993 #1321]) in the absence or presence of the test compound in a buffer containing 50 mM HEPES/Tris HCL (pH 7.4), 5 mM MgCl2, 2.5 mM EGTA, and 0.1% BSA. Nonspecific binding is determined in the presence of 10 μM WIN 55212-2. After being incubated, the samples are filtered rapidly under vacuum through glass fiber filters (GF/B; Packard) presoaked with 0.3% PEI and rinsed several times with ice-cold buffer containing 50 mM Tris HCl (pH 7.4) and 0.5% BSA using a 96-sample cell harvester (Unifilter; Packard). The filters are dried then counted for radioactivity in a scintillation counter (Topcount; Packard) using a scintillation cocktail (Microscint 0; Packard). The results are expressed as a percentage of the inhibition of the control radioligand-specific binding. The reference standard compounds are tested in each experiment at several concentrations to obtain a competition curve from which its IC50 is calculated.
# (§1) […] [^3H]-CP55940 at a concentration of 0.5 nM and [^3H]-WIN55212 at a concentration of 0.8 nM were used as radioligands for hCB1 and hCB2 assays, respectively. The results are expressed as a percent inhibition of control specific binding. Compounds which displaced the radioligand by more than 50% for either hCB1 or hCB2 receptors were arbitrary chosen for functional activity determination.
# [3] = target: T2, human CB1 (hCB1) receptor (Homo sapiens, UniProt P21554); assay: CB1 binding assay, competitive binding of [3H]CP 55940; conditions: for inhibition at 1 µM / inhibition at 10 µM: specific binding of [3H]-CP55940; for inhibition at 1 µM: CHO membranes
# T2 construct: expressed in transfected cells; host or cells: CHO (Chinese hamster ovary) cells, membranes
# Method: Cell membrane homogenates (25 μg protein) are incubated for 120 min at 37° C. with 0.5 nM [^3H]CP 55940 (the reference standard [Rinaldi-Carmona, 1996 #1320]) in the absence or presence of the test compound in a buffer containing 50 mM Tris HCl (pH 7.4), 5 mM MgCl2, 2.5 mM EDTA, and 0.3% bovine serum albumin (BSA). […]
# as §1
# [4] = target: T3, hCB2 receptor (Homo sapiens, UniProt P34972); assay: CB2 functional assay, [35S]GTP-γ-S binding; type: biochemical
# T3 construct: purchased ES-111-MG; host or cells: CHO membrane extracts
# Method: (§2) A dose response curve was generated at eight concentrations in duplicate on CB1 and CB2 in light of reference agonists.
# (§3) Membranes (CB1, ES-110-MG or CB2, ES-111-MG) are mixed with GDP (volume:volume) and incubated for at least […] on ice. In parallel, […] are mixed with the beads (volume:volume) just before starting the reaction. The following reagents are successively added in the wells of an Optiplate: 50 μl of ligand, 20 μl of the membranes:GDP mix, 10 μl of assay buffer for agonist testing and 20 μl of the […]: beads mix. The plates are covered with a topseal, shaken on an orbital shaker for 2 min, and then incubated between 30 to 60 min at room temperature. Then the plates are centrifuged for 10 min at 2000 rpm, incubated at room temperature between 1 to 4 hours and counted for 1 min with a PerkinElmer TopCount reader.
# (§4) Functional activity for acyl hydrazone was evaluated using [^35S]GTP-γ-S assay in CHO membrane extracts expressing recombinant hCB1 receptor or hCB2 receptor. The assay relies on the binding of [^35S]GTP-γ-S, a radiolabeled nonhydrolyzable GTP analogue, to the G protein upon binding of an agonist of the G-protein-coupled receptor. In this system, agonists stimulate [^35S]GTP-γ-S binding whereas neutral antagonist have no effect and inverse agonists decrease [^35S]GTP-γ-S basal binding.
# (§5) CB1 and CB2 assay data are presented as the mean of two determinations. […] For replicate determinations, the maximum variability tolerated in the test was of ±20% around the average of the replicates.
# [5] = target: T4, CB1 (Homo sapiens, UniProt P21554); assay: CB1 antagonist functional assay; type: biochemical; conditions: data not shown
# [6] = target: T4, CB1; assay: CB1 functional assay, [35S]GTP-γ-S binding; type: biochemical; design: purchased ES-110-MG; host or cells: CHO membrane extracts; conditions: for Emax at 3 µM: read-out: [35S]GTP-γ-S hCB1 Emax (%), Table 9 footnote a: Efficacy determined at 3 μM, relative to CP 55,940; for EC50: mean of two determinations
# Method: as §2, §3, §4, §5
# [7] = Table 7, relative to the efficacy of CP55940
# [8] = Table 9, mean of two determinations, read-out: [35S]GTP-γ-S hCB2 EC50 (nM ± SEM)
# [9] = Table 9, relative to the efficacy of CP 55,940
# [10] = Table 9, read-out: [35S]GTP-γ-S hCB1 EC50 (nM ± SEM)
# T4 sequence (P21554 whole entry): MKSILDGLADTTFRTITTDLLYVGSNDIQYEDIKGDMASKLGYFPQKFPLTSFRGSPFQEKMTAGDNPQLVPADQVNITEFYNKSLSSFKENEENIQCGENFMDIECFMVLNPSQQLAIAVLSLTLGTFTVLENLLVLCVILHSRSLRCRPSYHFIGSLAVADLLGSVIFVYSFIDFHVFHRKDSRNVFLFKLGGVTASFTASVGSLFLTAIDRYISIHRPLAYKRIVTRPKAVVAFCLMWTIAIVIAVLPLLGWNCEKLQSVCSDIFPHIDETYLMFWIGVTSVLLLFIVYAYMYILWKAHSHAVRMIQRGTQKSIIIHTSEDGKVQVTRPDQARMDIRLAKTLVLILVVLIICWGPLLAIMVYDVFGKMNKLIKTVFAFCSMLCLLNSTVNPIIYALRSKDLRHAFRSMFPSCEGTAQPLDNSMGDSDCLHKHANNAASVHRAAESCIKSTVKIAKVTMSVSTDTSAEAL
# T2 sequence (P21554 whole entry): as above
# T1 sequence (P34972 whole entry): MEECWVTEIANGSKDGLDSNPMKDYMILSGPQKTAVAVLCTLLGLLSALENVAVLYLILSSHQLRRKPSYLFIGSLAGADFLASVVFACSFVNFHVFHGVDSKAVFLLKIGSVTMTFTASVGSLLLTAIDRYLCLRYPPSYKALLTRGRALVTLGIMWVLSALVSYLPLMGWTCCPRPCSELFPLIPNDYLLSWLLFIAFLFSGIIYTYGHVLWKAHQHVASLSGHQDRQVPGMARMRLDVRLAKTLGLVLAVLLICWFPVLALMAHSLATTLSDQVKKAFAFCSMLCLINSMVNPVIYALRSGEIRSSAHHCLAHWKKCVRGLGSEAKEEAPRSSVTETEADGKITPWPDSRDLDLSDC
# T3 sequence (P34972 whole entry): as above
structure (smiles),measurement,setting,value
"COc1ccc(C(=O)c2c(C)n(CCN3CCOCC3)c3cc(I)ccc23)cc1 [AM630, reference compound]",effect of pretreatment on the anti-allodynic effect of Example 6,[1],antagonized the effects of compound of Example 6
"CCCCCCN1C(=O)/C(=N\NC(=O)C23CC4CC(CC(C4)C2)C3)c2ccccc21 [Example 20, N′-[(3Z)-1-hexyl-2-oxo-1,2-dihydro-3H-indol-3-ylidene]adamantane-1-carbohydrazide]",inhibition at 1 µM,[2],> 85%
same,inhibition at 1 µM,[3],> 85%
same,Emax at 3 µM,"[4]; read-out: [35S]GTP-γ-S hCB2 Emax (%), Table 9 footnote a: Efficacy determined at 3 μM, relative to CP 55,940",32.1%
same,antagonist activity in a CB1 antagonist functional assay,[5],failed to be antagonist
same,Emax at 3 µM,[6],34.6%
"O=C(Cc1ccccc1)N/N=C1\C(=O)N(CCC2CCCCC2)c2ccccc21 [Example 10, N′-[1-(2-cyclohexylethyl)-2-oxo-1,2-dihydro-3H-indol-3-ylidene]-2-phenylacetohydrazide]",inhibition at 10 µM,[2],47.2 ± 7.7%
same,inhibition at 10 µM,[3],88.8 ± 0.6%
same,Emax,[4]; [7],21%
same,EC50,"[6]; Table 7, read-out: [35S]GTP-γ-S (hCB1) EC50 (nM ± SEM)",1238.8 ± 1.2 nM
same,Emax,[6]; [7],75%
"CCCCCCN1C(=O)/C(=N\NC(=O)c2ccc(OC)cc2)c2ccccc21 [Example 17, N′-[(3Z)-1-hexyl-2-oxo-1,2-dihydro-3H-indol-3-ylidene]-4-methoxybenzohydrazide]",inhibition at 1 µM,[2],56 ± 5.7%
same,inhibition at 1 µM,[3],81.7 ± 1.1%
same,EC50,[4]; [8],143 ± 2.6 nM
same,Emax,[4]; [9],49.5%
same,EC50,[6]; [10],852 ± 1.2 nM
same,Emax,[6]; [9],71%
"CCCCCCN1C(=O)/C(=N\NC(=O)OC(C)(C)C)c2ccccc21 [Example 14, tert-butyl (2Z)-2-(1-hexyl-2-oxo-1,2-dihydro-3H-indol-3-ylidene)hydrazinecarboxylate]",inhibition at 1 µM,[2],82.3 ± 0.8%
same,inhibition at 1 µM,[3],85.1 ± 3.3%
same,EC50,[4]; [8],22.4 ± 1.3 nM
same,Emax,[4]; [9],43.4%
same,EC50,[6]; [10],937.1 ± 1.2 nM
same,Emax,[6]; [9],92%
"O=C(N/N=C1\C(=O)N(CCC2CCCCC2)c2ccccc21)c1ccccc1 [Example 5, Benzoic acid [1-(2-cyclohexyl-ethyl)-2-oxo-1,2-dihydro-indol-3-ylidene]-hydrazide]",% Inhibition of Control Specific Binding,"[2]; CB2, Test Concentration 1.0E−05 (MD)",80%
same,% of Control Specific Binding 1st,"[2]; CB2, Test Concentration 1.0E−05 (MD), 1st determination",13.9%
same,% of Control Specific Binding 2nd,"[2]; CB2, Test Concentration 1.0E−05 (MD), 2nd determination",26.4%
same,% of Control Specific Binding Mean,"[2]; CB2, Test Concentration 1.0E−05 (MD), mean",20.2%
same,% Inhibition of Control Specific Binding CB2,"[2]; Table 4, concentration not given",80%
same,inhibition at 10 µM,[2],79.8 ± 6.3%
same,% of Control Specific Binding 1st,"[3]; CB1, Test Concentration 1.0E−05 (MD), 1st determination",0.4%
same,% of Control Specific Binding 2nd,"[3]; CB1, Test Concentration 1.0E−05 (MD), 2nd determination",7.7%
same,% of Control Specific Binding Mean,"[3]; CB1, Test Concentration 1.0E−05 (MD), mean",4%
same,inhibition at 10 µM,[3],96 ± 3.7%
same,% Activation Average,[4]; CB2 Functional Activity,55.55%
same,Compound Activity,[4]; CB2 Functional Activity,Agonist
same,EC50,"[4]; CB2 Functional Activity, read-out: EC50 (nM) for GTP Binding",103 nM
same,EC50,"[4]; Table 7, mean of two determinations, read-out: [35S]GTP-γ-S (hCB2) EC50 (nM ± SEM)",103 ± 1.6 nM
same,Emax,[4]; [7],55.6%
same,% Activation Average,[6]; CB1 Functional Activity,56.75%
same,Compound Activity,[6]; CB1 Functional Activity,Agonist
same,Emax,[6]; [7],56.8%
"O=C(N/N=C1\C(=O)N(CC2CCCCC2)c2ccccc21)c1ccccc1 [Example 25, N′-[(3Z)-1-(cyclohexylmethyl)-2-oxo-1,2-dihydro-3H-indol-3-ylidene]benzohydrazide]",inhibition at 1 µM,[2],100 ± 0.4%
same,inhibition at 1 µM,[3],99 ± 1.1%
same,EC50,[4]; [8],9.8 ± 1.1 nM
same,Emax,[4]; [9],65.7%
same,EC50,[6]; [10],62.3 ± 1.3 nM
same,Emax,[6]; [9],99%
"CCCCCCN1C(=O)/C(=N\NC(=O)c2cccc3ccccc23)c2ccccc21 [Example 19, N′-[(3Z)-1-hexyl-2-oxo-1,2-dihydro-3H-indol-3-ylidene]-1-naphthohydrazide]",inhibition at 1 µM,[2],69.8 ± 4%
same,inhibition at 1 µM,[3],> 80%
same,EC50,[4]; [8],202.2 ± 2 nM
same,Emax,[4]; [9],30.5%
same,antagonist activity in a CB1 antagonist functional assay,[5],failed to be antagonist
same,Emax at 3 µM,[6],12.9%
"CCCCCCN1C(=O)/C(=N\NC(=O)C2CCCCC2)c2ccccc21 [Example 11, N′-[(3Z)-1-hexyl-2-oxo-1,2-dihydro-3H-indol-3-ylidene]cyclohexanecarbohydrazide]",inhibition at 1 µM,[2],61 ± 2.1%
same,inhibition at 1 µM,[3],65.8 ± 0.2%
same,EC50,[4]; [8],79.1 ± 1.5 nM
same,Emax,[4]; [9],58%
same,Emax at 3 µM,[6],40.9%
